The structures appear in SMILES notation.

This test has as its system CDK8 (phosphorylation of STAT1 at serine 727 in A549 cells). As to the kind of experiment: Cell based Phospho-STAT1 assay (IFNγ-stimulated A549 cells, AlphaLISA). The following applies: Homo sapiens, A549, A549 cells, phospho-STAT1 after IFNγ stimulation. The method, then: Determine Inhibitor Activity Against CDK8 in Cell Based Phospho-STAT1 Assay
This assay measures the phosphorylation of the CDK8 substrate STAT1 following Interferon-gamma (IFNγ) stimulation^1. The lung carcinoma cell line A549 is seeded in a 96 well plate in 50 μL of culture media at 5×10^4 cells/well and incubated at 37° C. overnight. Serial dilutions of compounds (in total volume of 50 μL culture media) are added to the cells and incubated at 37° C. for one hour. Human IFNγ (R&D Systems) is added to the cells at a 10 ng/mL final concentration. 4 wells containing DMSO treated cells stimulated with IFNγ serve as high controls and 4 wells containing DMSO treated unstimulated cells serve as low controls. After 30 minute IFNγ stimulation at 37° C., the culture media is removed and 50 μL of 1×AlphaLISA lysis buffer (PerkinElmer GA, USA) is added to each well. 5 μL cell lysate is transferred to a 384 well AlphaPlate (PerkinElmer GA, USA) and 5 μL containing 0.156 nM Phospho-STAT1 (Ser727) rabbit monoclonal antibody (Cell Signaling Technology), 0.156 nM Mouse Anti-STAT1 antibody (BD Transduction Laboratories), and 10 μg/mL Anti-rabbit IgG AlphaLISA acceptor beads (PerkinElmer GA, USA) diluted in 1× AlphaLISA immunoassay buffer (PerkinElmer GA, USA) is added to the cell lysates and incubated at room temperature for 90 minutes. 5 μL Anti-Mouse IgG Alpha donor beads diluted in 1× AlphaLISA immunoassay buffer (PerkinElmer GA, USA) is added to the reaction mixture and incubated at room temperature for 90 minutes. Upon excitation of these beads with laser light at 680 nm, singlet oxygen is produced. This singlet oxygen is rapidly quenched, unless the AlphaLISA Anti-Rabbit IgG acceptor beads are in close proximity, in which case a proximity signal can be measured at […]. In the presence of cellular CDK8 catalytic activity, there is a very strong proximity signal. Selective CDK8 inhibitors affect a decrease in this proximity signal through a decrease in phosphorylation of STAT1 at serine 727. The percentage inhibition at individual concentrations relative to high and low controls is calculated. The data are analyzed by using nonlinear regression to generate IC50 values.

Compound `O=S1(=O)CCC(Oc2cccc3ncc(-c4ccc(-c5cnn(C(F)F)c5)cc4)n23)CC1` [Compound P-0349, 4-((3-(4-(1-(difluoromethyl)-1H-pyrazol-4-yl)phenyl)imidazo[1,2-a]pyradin-5-yl)oxy)tetrahydro-2H-thiopyran 1,1-dioxide] gave a half-maximal inhibitory concentration (IC50) of 100 to 1000 nM. With `Cc1noc(-c2ccc(-c3cnn4cccc(N5CCC(C#N)(c6ccccn6)CC5)c34)cc2)n1` [Compound P-0351, 1-(3-(4-(3-methyl-1,2,4-oxadiazol-5-yl)phenyl)pyrazolo[1,5-a]pyridin-4-yl)-4-(pyridin-2-yl)piperidine-4-carbonitrile] the figure was 100 to 1000 nM. With `Cn1ncc2ccc(-c3cnn4cccc(N5CCC(C#N)(c6ccccn6)CC5)c34)cc21` [Compound P-0352, 1-(3-(1-methyl-1H-indazol-6-yl)pyrazolo[1,5-a]pyridin-4-yl)-4-(pyridin-2-yl)piperidine-4-carbonitrile] the figure was 100 to 1000 nM; with `Cn1cc(C#Cc2cnc3cccc(N4CCC5(CC4)COC5)n23)cn1` [Compound P-0354, 7-(3-((1-methyl-1H-pyrazol-4-yl)ethynyl)imidazo[1,2-a]pyridin-5-yl)-2-oxa-7-azaspiro[3.5]nonane], 1000 to 10000 nM; with `CC(C)(C#N)COc1cccc2ncc(-c3ccc(-c4cnn(C(F)F)c4)cc3)n12` [Compound P-0355, 3-((3-(4-(1-(difluoromethyl)-1H-pyrazol-4-yl)phenyl)imidazo[1,2-a]pyridin-5-yl)oxy)-2,2-dimethylpropanenitrile], 100 to 1000 nM. With `CN1CCN(C(=O)c2ccc3cc(-c4cnn5cccc(C6=CCC(C#N)CC6)c45)ccc3c2)CC1` (centres unmarked) [Compound P-0356, 4-(3-(6-(4-methylpiperazine-1-carbonyl)naphthalen-2-yl)pyrazolo[1,5-a]pyridin-4-yl)cyclohex-3-ene-1-carbonitrile] the figure was 0.1 to 100 nM. Compound `Cn1ncc2cc(-c3cnc4[nH]ccc4c3N3CCC(C#N)CC3)ccc21` [Compound P-0357, 1-[5-(1-methylindazol-5-yl)-1H-pyrrolo[2,3-b]pyridin-4-yl]piperidine-4-carbonitrile] registered an IC50 of 0.1 to 100 nM. The compound `Cn1cc(-c2ccc(-c3cnc4[nH]cc(Cl)c4c3N3CCC(C#N)CC3)cc2)cn1` [Compound P-0360, 1-(3-chloro-5-(4-(1-methyl-1H-pyrazol-4-yl)phenyl)-1H-pyrrolo[2,3-b]pyridin-4-yl)piperidine-4-carbonitrile] showed an IC50 of 0.1 to 100 nM. For the compound `Cn1ncc2cc(-c3cnc4cccc(N5CCC(C#N)CC5)n34)ccc21` [Compound P-0361, 1-(3-(1-methyl-1H-indazol-5-yl)imidazo[1,2-a]pyridin-5-yl)piperidine-4-carbonitrile], the IC50 is 0.1 to 100 nM. The value for `Cn1ncc2cc(-c3cnn4cccc(N5CCC(C#N)(c6ccccn6)CC5)c34)ccc21` [Compound P-0364, 1-(3-(1-methyl-1H-indazol-5-yl)pyrazolo[1,5-a]pyridin-4-yl)-4-(pyridin-2-yl)piperidine-4-carbonitrile] was 0.1 to 100 nM. In turn, `Cn1cc(-c2ccc(-c3cnn4cccc(N5CCC(C#N)(c6ccccn6)CC5)c34)cc2)cn1` [Compound P-0365, 1-(3-(4-(1-methyl-1H-pyrazol-4-yl)phenyl)pyrazolo[1,5-a]pyridin-4-yl)-4-(pyridin-2-yl)piperidine-4-carbonitrile] registered a half-inhibitory concentration (IC50) of 0.1 to 100 nM. With `Cn1ncc2cc(-c3cnc4cccc(C5=CCC(C#N)CC5)n34)ccc21` (centres unmarked) [Compound P-0367, 4-(3-(1-methyl-1H-indazol-5-yl)imidazo[1,2-a]pyridin-5-yl)cyclohex-3-ene-1-carbonitrile] the figure was 0.1 to 100 nM. In turn, `Cn1cc(-c2ccc(-c3cnn4cccc(C#CC5(O)COC5)c34)cc2)cn1` [Compound P-0368, 3-((3-(4-(1-methyl-1H-pyrazol-4-yl)phenyl)pyrazolo[1,5-a]pyridin-4-yl)ethynyl)oxetan-3-ol] showed a 50% inhibitory concentration (IC50) of 0.1 to 100 nM. As for `NC(=O)C1CC=C(c2cccc3ncc(-c4ccc(OCCN5CCCCC5)cc4)n23)CC1` (centres unmarked) [Compound P-0369, 4-(3-(4-(2-(piperidin-1-yl)ethoxy)phenyl)imidazo[1,2-a]pyridin-5-yl)cyclohex-3-ene-1-carboxamide], the IC50 is 1000 to 10000 nM. With `CC(C)(O)C#Cc1cccn2ncc(-c3ccc(-c4cnn(C(F)F)c4)cc3)c12` [Compound P-0370, 4-(3-(4-(1-(difluoromethyl)-1H-pyrazol-4-yl)phenyl)pyrazolo[1,5-a]pyridin-4-yl)-2-methylbut-3-yn-2-ol] the figure was 0.1 to 100 nM; with `FC(F)n1cc(-c2ccc(-c3cccn4ncc(-c5ccc(-c6cnn(C(F)F)c6)cc5)c34)cc2)cn1` [Compound P-0371, 3,4-bis(4-(1-(difluoromethyl)-1H-pyrazol-4-yl)phenyl)pyrazolo[1,5-a]pyridine], 1000 to 10000 nM; with `Cn1cc(-c2ccc(-c3cnc4cccc(OC5CCC(F)(F)CC5)n34)cc2)cn1` [Compound P-0372, 5-((4,4-difluorocyclohexyl)oxy)-3-(4-(1-methyl-1H-pyrazol-4-yl)phenyl)imidazo[1,2-a]pyridine], 1000 to 10000 nM. As for `CCC(O)(C#Cc1cccn2ncc(-c3ccc(-c4cnn(C)c4)cc3)c12)CC` [Compound P-0373, 3-ethyl-1-(3-(4-(1-methyl-1H-pyrazol-4-yl)phenyl)pyrazolo[1,5-a]pyridin-4-yl)pent-1-yn-3-ol], the IC50 fell in the range of 100 to 1000 nM. With `Cn1cc(C#Cc2cnc3cccc(C4=CCC(C#N)CC4)n23)cn1` (centres unmarked) [Compound P-0374, 4-(3-((1-methyl-1H-pyrazol-4-yl)ethynyl)imidazo[1,2-a]pyridin-5-yl)cyclohex-3-ene-1-carbonitrile] the figure was 0.1 to 100 nM; with `Cn1cc(-c2ccc(-c3cnc4cccc(C#CC(C)(C)O)n34)cc2)cn1` [Compound P-0375, 2-methyl-4-(3-(4-(1-methyl-1H-pyrazol-4-yl)phenyl)imidazo[1,2-a]pyridin-5-yl)but-3-yn-2-ol], 0.1 to 100 nM. With `Cn1cncc1C#Cc1cnc2cccc(N3CCC4(CC3)C(=O)Nc3ccccc34)n12` [Compound P-0376, 1′-[3-[2-(3-methylimidazol-4-yl)ethynyl]imidazo[1,2-a]pyridin-5-yl]spiro[indoline-3,4′-piperidine]-2-one] the figure was 100 to 1000 nM; with `Cn1cc(-c2ccc(-c3cnc4cccc(NCc5cccnc5)n34)cc2)cn1` [Compound P-0377, 3-(4-(1-methyl-1H-pyrazol-4-yl)phenyl)-N-(pyridin-3-ylmethyl)imidazo[1,2-a]pyridin-5-amine], 1000 to 10000 nM; with `Cn1cc(-c2ccc(-c3cnc4cccc(N5CCC(C(N)=O)C5)n34)cc2)cn1` (centres unmarked) [Compound P-0378, 1-(3-(4-(1-methyl-1H-pyrazol-4-yl)phenyl)imidazo[1,2-a]pyridin-5-yl)pyrrolidine-3-carboxamide], 100 to 1000 nM.

`CNC(=O)C1CCN(c2cccc3ncc(-c4ccc(-c5cnn(C)c5)cc4)n23)CC1` [Compound P-0380, N-methyl-1-(3-(4-(1-methyl-1H-pyrazol-4-yl)phenyl)imidazo[1,2-a]pyridin-5-yl)piperidine-4-carboxamide]: the IC50 is 1000 to 10000 nM.

For the compound `Cn1cc(-c2ccc(-c3cnc4cccc(N5CCCCC5)n34)cc2)cn1` [Compound P-0381, 3-(4-(1-methyl-1H-pyrazol-4-yl)phenyl)-5-(piperidin-1-yl)imidazo[1,2-a]pyridine], the 50% inhibitory concentration (IC50) lay within 1000 to 10000 nM. With `Cn1cc(-c2ccc(-c3cnc4cccc(N5CCN(c6nccs6)CC5)n34)cc2)cn1` [Compound P-0383, 2-(4-(3-(4-(1-methyl-1H-pyrazol-4-yl)phenyl)imidazo[1,2-a]pyridin-5-yl)piperazin-1-yl)thiazole] the figure was 1000 to 10000 nM; with `Cn1cc(-c2ccc(-c3cnc4cccc(N5CCC(C(O)c6cccnc6)CC5)n34)cc2)cn1` (centres unmarked) [Compound P-0384, (1-(3-(4-(1-methyl-1H-pyrazol-4-yl)phenyl)imidazo[1,2-a]pyridin-5-yl)piperidin-4-yl)(pyridin-3-yl)methanol], 1000 to 10000 nM. Regarding `Cn1cc(-c2ccc(-c3cnc4cccc(N5CCN(c6ccccn6)CC5)n34)cc2)cn1` [Compound P-0385, 3-(4-(1-methyl-1H-pyrazol-4-yl)phenyl)-5-(4-(pyridin-2-yl)piperazin-1-yl)imidazo[1,2-a]pyridine], the IC50 fell in the range of 1000 to 10000 nM. The value for `Cn1cc(-c2ccc(-c3cnc4cccc(N5CCN(c6cccnc6)CC5)n34)cc2)cn1` [Compound P-0386, 3-(4-(1-methyl-1H-pyrazol-4-yl)phenyl)-5-(4-(pyridin-3-yl)piperazin-1-yl)imidazo[1,2-a]pyridine] was 0.1 to 100 nM.

The values above are taken from patent publication US10703757B2, “Compounds and methods for CDK8 modulation and indications therefor” (Plexxikon Inc., priority 2016, dated 2020).
